Series [1] relates to Ethanol Red™. Nature of the series: Addition of benzoate, propionate and formate to ethanol fermentations (SSF of corn mash). It is filed as cell-based, Saccharomyces cerevisiae. The settings on record: for Glycerol pH 3.8 (w/v %) / Glycerol pH 5 (w/v %) / ETOH pH 3.8 (w/v %) / ETOH pH 5 (w/v %) / % Boost over no added acid: 54 hours; for % Boost over no added acid: ethanol; for % Change from no added acid: glycerol. The protocol: Industrially prepared corn mash was obtained from Lincolnland (Liquozyme™ SODS liquefaction).
After 15 minutes, the flasks were swirled, but no other agitation took place.
The pH after liquefaction was 4.9 and was adjusted to various pHs for SSF. […] Glucoamylase SA (“GSA”)/Cellulase VD (“CVD”) enzyme blend was dosed to each tube of mash at 110 μg EP GSA/gDS and 30 μg EP CVD/gDS. […] Benzoic acid was added in the range of 0-0.8 mM. Propionic and Formic acid were added in the range of 0-30 mM. All acid additions were done prior to inoculation (i.e., before exponential growth).
Each tube was processed for HPLC analysis by deactivation with 150 μL of 40% v/v H2SO4, vortexing, centrifuging at 1460×g for 10 minutes, and filtering through a 0.45 μm Whatman PP filter. All samples were processed without further dilution.

The test system of series [2] is zein. Nature of the series: Relative activity assay of protease variants (zein micro titer plate). It is filed as biochemical. Conditions: Table 5, upper part. An outline of the steps:
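Yeast culture supernatants (3 days, 28 °C) incubated over 4 h or overnight on zein-agar plates (pH 4.5 acetate, 0.25 mM ZnSO4) at two temperatures. Zein turbidity read at A630; higher/lower-temperature activity ratio gives relative thermoactivity.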

Setting [3] is: acid Concentration 0.2 (mM), pH 3.8.
The mark [4] stands for this setting: acid Concentration 0.2 (mM), pH 5.
Setting [5] is: acid Concentration 0.5 (mM), pH 3.8.
Where [6] appears, read: acid Concentration 0.5 (mM), pH 5.
Setting [7] is: acid Concentration 0.8 (mM), pH 3.8.
The mark [8] stands for this setting: acid Concentration 0.8 (mM), pH 5.
Where [9] appears, read: acid Concentration 10 (mM), pH 3.8.
The mark [10] stands for this setting: acid Concentration 10 (mM), pH 5.
[11] abbreviates: acid Concentration 20 (mM), pH 3.8.
The mark [12] stands for this setting: acid Concentration 20 (mM), pH 5.
Where [13] appears, read: acid Concentration 30 (mM), pH 3.8.
The mark [14] stands for this setting: acid Concentration 30 (mM), pH 5.

Values joined by “and” are separate entries in the source; they are usually repeats but may differ in a detail not shown here. Equal values may be shown once.

Consider `O=C(O)c1ccccc1` [Benzoic Acid, benzoic acid], for which the “effect of acid addition on fermentation performance” value in series [1] was “increases fermentation performance”. The “Glycerol pH 3.8 (w/v %)” value in series [1] (Concentration 0.2 mM, pH 3.8) came out at 1.159 w/v %; in series [1] (Concentration 0.5 mM, pH 3.8), 1.091 w/v %; in series [1] (Concentration 0.8 mM, pH 3.8), 1.041 w/v %. Besides, the “Glycerol pH 5 (w/v %)” value in series [1] (Concentration 0.2 mM, pH 5) came to 1.160 w/v %; in series [1] (Concentration 0.5 mM, pH 5), 1.127 w/v %; in series [1] (Concentration 0.8 mM, pH 5), 1.093 w/v %. Further, the “ETOH pH 3.8 (w/v %)” value in series [1] (setting [3]) is listed as 13.73 w/v %; in series [1] (setting [5]), 13.6785 w/v %; in series [1] (setting [7]), 13.35 w/v %. In addition, the “ETOH pH 5 (w/v %)” value is on record as 13.01 w/v % in series [1] (setting [4]), 13.23 w/v % in series [1] (setting [6]) and 13.39 w/v % in series [1] (setting [8]). Further, the “% Boost over no added acid” value in series [1] (setting [3]) is 2.70%; in series [1] (setting [4]) it was 0.27%; in series [1] (setting [5]) it was 2.33%; in series [1] (setting [6]), 1.96%; in series [1] (setting [7]), −0.12%; in series [1] (setting [8]) it was 3.20%. For the same molecule, the “% Change from no added acid” value in series [1] (Concentration 0.2 mM, pH 3.8) is on record as −11.47%; in series [1] (Concentration 0.2 mM, pH 5) it was −13.60%; in series [1] (Concentration 0.5 mM, pH 3.8) it was −16.65%; in series [1] (Concentration 0.5 mM, pH 5), −16.08%; in series [1] (Concentration 0.8 mM, pH 3.8), −20.45%; in series [1] (Concentration 0.8 mM, pH 5) it was −18.58%.

As for `O=CO` [Formic Acid, formic acid], the “effect of acid addition on fermentation performance” value in series [1] is “boost”. Also, the “Glycerol pH 3.8 (w/v %)” value in series [1] (Concentration 10 mM, pH 3.8) came out at 1.078 w/v %; in series [1] (Concentration 20 mM, pH 3.8) it was 1.070 w/v %; in series [1] (Concentration 30 mM, pH 3.8), 0.966 w/v %. For the same molecule, the “Glycerol pH 5 (w/v %)” value in series [1] (Concentration 10 mM, pH 5) was determined as 1.175 w/v %; in series [1] (Concentration 20 mM, pH 5), 1.117 w/v %; in series [1] (Concentration 30 mM, pH 5), 1.111 w/v %. Further, the “ETOH pH 3.8 (w/v %)” value is recorded as 13.69 w/v % in series [1] (setting [9]), 13.41 w/v % in series [1] (setting [11]) and 6.458 w/v % in series [1] (setting [13]). The “ETOH pH 5 (w/v %)” value in series [1] (setting [10]) stood at 13.1 w/v %; in series [1] (setting [12]) it was 13.22 w/v %; in series [1] (setting [14]), 13.2 w/v %. The “% Boost over no added acid” value in series [1] (setting [9]) is reported as 2.45%; in series [1] (setting [10]) it was 0.94%; in series [1] (setting [11]) it was 0.31%; in series [1] (setting [12]), 1.84%; in series [1] (setting [13]) it was −51.69%; in series [1] (setting [14]) it was 1.70%. For the same molecule, the “% Change from no added acid” value in series [1] (Concentration 10 mM, pH 3.8) was −17.68%; in series [1] (Concentration 10 mM, pH 5), −12.49%; in series [1] (Concentration 20 mM, pH 3.8), −18.24%; in series [1] (Concentration 20 mM, pH 5), −16.81%; in series [1] (Concentration 30 mM, pH 3.8), −26.19%; in series [1] (Concentration 30 mM, pH 5), −17.26%.

For the molecule `CCC(=O)O` [Propionic Acid, propionic acid], the “Glycerol pH 3.8 (w/v %)” value in series [1] (Concentration 10 mM, pH 3.8) was 0.985 w/v %; in series [1] (Concentration 20 mM, pH 3.8) it was 0.896 w/v %; in series [1] (Concentration 30 mM, pH 3.8), 0.654 w/v %. The “Glycerol pH 5 (w/v %)” value is listed as 1.017 w/v % in series [1] (Concentration 10 mM, pH 5); 0.927 w/v % in series [1] (Concentration 20 mM, pH 5); 0.874 w/v % in series [1] (Concentration 30 mM, pH 5). In addition, the “ETOH pH 3.8 (w/v %)” value in series [1] (setting [9]) was 13.2 w/v %; in series [1] (setting [11]) it was 11.67 w/v %; in series [1] (setting [13]) it was 3.064 w/v %. The “ETOH pH 5 (w/v %)” value was determined as 13.26 w/v % in series [1] (setting [10]), 12.87 w/v % in series [1] (setting [12]) and 11.8064 w/v % in series [1] (setting [14]). Also, the “% Boost over no added acid” value was −1.27% in series [1] (setting [9]); 2.2% and 2.21% in series [1] (setting [10]); −12.7% in series [1] (setting [11]); −0.84% in series [1] (setting [12]); −77.08% in series [1] (setting [13]); −9.03% in series [1] (setting [14]). Also, the “% Change from no added acid” value in series [1] (Concentration 10 mM, pH 3.8) is reported as −24.78%; in series [1] (Concentration 10 mM, pH 5), −24.26%; in series [1] (Concentration 20 mM, pH 3.8), −31.55%; in series [1] (Concentration 20 mM, pH 5) it was −30.95%; in series [1] (Concentration 30 mM, pH 3.8), −50.02%; in series [1] (Concentration 30 mM, pH 5), −34.94%. For the same molecule, in series [1] (pH 3.8), the “effect on ethanol production at pH 3.8” value is listed as “negative effect”.

B1: JTP134: protease variant of SEQ ID NO: 3: D79L Y82F S87P A112P D142L (protein, listed as Thermoascus aurantiacus)
chain: MRLVASLTALVALSVPVFPAAVNVKRASSYLEITLSQVSNTLIKAVVQNTGSDELSFVHLNFFKDPAPVKKVSVYRDGSEVQFEGILSRYKSTGLSRDAFTYLAPGESVEDVFDIASTYDLTSGGPVTIRTEGVVPYATANSTDIAGYISYSSNVLTIDVDGAAAATVSKAITPLDRRTRISSCSGSRQSALTTALRNAASLANAAADAAQSGSASKFSEYFKTTSSSTRQTVAARLRAVAREASSSSSGATTYYCLDPFGYCSPNVLAYTLPSYNIIANCDIFYTYLPPLTSTCHAQDQATTALHEFTHAPGVYSPGTLDLAYGYQAAMGLSSSQAVMNADTYALYANAIYLGC
Turning to B1, in series [2], the “Relative activity 80° C./70° C.” value worked out at 40%.

Values taken from patent US20170283834A1, “Processes for Producing A Fermentation Product Using A Fermenting Organism” (Novozymes A/S, priority 2014, published 2017).
